Read-outs that look alike come from different tables or passages of the source.
Legend:
[1] = test system: human CEM cells; assay: Cytotoxicity (MTT) on CEM cells; assay type: cell-based; settings: CCRF-CEM; for CC50: read-out: CC50 CEM; for EC50: Tables 4 and 6, CEM cells, some values 'then plateau'
Procedure: (§1) The cytotoxic effect of a compound is studied on human CEM cells and MCF-7 mammary carcinoma cells that are or are not resistant to gemcitabine, which is an anticancer nucleoside used in chemotherapy.
(§2) The cytotoxicity (CC50) was estimated by measuring the reduction of 3-(4,5-dimethylthiazol-2-yl)-2,5-diphenyltetrazolium bromide (MTT), which is converted into insoluble violet formazan. To do this, 100 000 cells (human CEM-SS or MCF-7 lines) are inoculated per well in 100 μl of culture medium, in 96-well microtitration plates. After 24 hours, the test products are added in 100 μl and incubation is continued for 48 to 72 hours. MIT is then added in a proportion of 20 μl of a solution at 5 mg/ml in PBS. Three hours later, 100 μl of a DMF/acetic acid/HCl/SDS (sodium dodecyl sulfate) solution are added. After 3 hours at 37° C., the absorbance of the formazan is measured at 590 nm and compared with that of the untreated control.

[2] = test system: MCF-7 mammary carcinoma cells; assay: Cytotoxicity (MTT) on MCF-7 cells; assay type: cell-based, human; settings: for CC50: Homo sapiens, MCF7, read-out: CC50 MCF-7
Procedure: as §1, §2

[3] = test system: L1210/0 murine leukemia cells; assay: Cytotoxic effect on L1210/0 cells; assay type: cell-based; settings: Tables 5 and 7, L1210/0 cells
[4] = test system: FM3A/0 murine mammary carcinoma cells; assay: Cytotoxic effect on FM3A/0 cells; assay type: cell-based; parameters: unit not given beside the values; settings: Tables 5 and 7, FM3A/0 cells
[5] = test system: human Molt4/C8 cells; assay: Cytotoxic effect on Molt4/C8 cells; assay type: cell-based; settings: Tables 5 and 7, Molt4/C8 cells
[6] = test system: human CEM T4 lymphocytes; assay: Cytotoxic effect on CEM T4 lymphocytes; assay type: cell-based; parameters: unit not given beside the values; settings: Tables 5 and 7, CEM cells
[7] = test system: HeLa cells; assay: Cytotoxic effect on HeLa cells; assay type: cell-based; parameters: unit not given beside the values; settings: Tables 5 and 7, HeLa cells
[8] = test system: Moloney sarcoma virus; assay: Inhibition of transformation of mouse embryo C3H/3T3 cells induced by Moloney sarcoma virus; assay type: cell-based; parameters: MIC (minimum inhibitory concentration): unit not given here; settings: for MIC (minimum inhibitory concentration): C3H/3T3 cells, a second bound is given in brackets for some compounds
Text: 2.2. Inhibitory Effect on the Transformation of Mouse Embryo C3H/3T3 Cells Induced by Moloney Sarcoma Virus (Model of Infection with HIV)

[9] = test system: HIV-1; assay: Anti-HIV-1 effect in CEM cells; assay type: cell-based
Procedure: (§3) The evaluation test is described in Roy, B.; Chambert, S.; Lepoivre M.; Aubertin, A.-M.; Balzarini, J.; Décout, J.-L., Deoxyribonucleoside 2′- or 3′-mixed disulfides: prodrugs to target ribonucleotide reductase and/or to inhibit HIV reverse transcription. J. Med. Chem. 2003, 46, 2565-2568.
(§4) The toxicity and the antiviral activities were measured at different concentrations, and their evolution as a function of the concentration makes it possible to evaluate: • the concentration at which 50% of the cells are dead in the absence of virus (CC 50) for each of the test compounds, from the change in absorbance at 540 nm of formazan as a function of the concentration of test compound, • the concentration of compound that leads to a 50% reduction in the activity of viral reverse transcriptase (EC 50). This concentration is determined from the curve representing the change in the percentage of “remaining reverse transcriptase” activity (defined as being the ratio of the activity of the reverse transcriptase in the presence of the test compound to that of the untreated cells) as a function of the concentration of test compound.
(§5) EC50: concentration required to afford 50% protection to the CEM cells against the cytopathogenicity of HIV;

[10] = test system: HIV-2; assay: Anti-HIV-2 effect in CEM cells; assay type: cell-based; settings: CEM cells, read-out: EC50 HIV-2
Procedure: as §3, §4, §5

[11] = test system: HIV-2; assay: Anti-HIV-2 effect in CEM/TK− cells; assay type: cell-based; settings: Human immunodeficiency virus 2, CEM-TK(-); Third Series; CEM cells having no thymidine kinase activity
Procedure: as §3, §4, §5
• Effect in CEM not expressing thymidine kinase activity (CEM/TK^−, cells having no thymidine kinase activity).

[12] = transformation of C3H/3T3 cells induced by Moloney sarcoma virus, read-out: EC50 (effective concentration 50%)
[13] = Human immunodeficiency virus 1, CCRF-CEM, Third Series, read-out: EC50 HIV-1
[14] = Human immunodeficiency virus 2, CCRF-CEM, Third Series

CC(C)CCSC1=C[C@@H](CO)O[C@H]1n1ccc(=O)[nH]c1=O [Compound 2]
CC50 ([1]; Table 3, MTT, human CEM cells): > 200 µM
CC50 [2]: > 200 µM

Cc1cn([C@H]2C=C(SCC[Si](C)(C)C)[C@@H](CO)O2)c(=O)[nH]c1=O [Compound 4, 2′,3′-didehydro-2′,3′-dideoxy-3′-(2-trimethylsilyl)ethylthiothymidine]
CC50 ([1]; Homo sapiens): 82 µM
cytotoxicity at 200 μM, MCF-7 [2]: 33%

C[Si](C)(C)CCSC1=C[C@@H](CO)O[C@H]1n1ccc(N)nc1=O [Compound 5, 2′,3′-Didehydro-2′,3′-dideoxy-2′-(2-trimethylsilyl)ethylthiocytidine]
CC50 ([1]; Homo sapiens): 217 µM
cytotoxicity at 200 μM, MCF-7 [2]: 41%

Cc1cn([C@@H]2O[C@H](CO)C=C2[S+]([O-])CC[Si](C)(C)C)c(=O)[nH]c1=O (stereo partly shown) [Compound 6, 2′,3′-Didehydro-2′,3′-dideoxy-2′-(2-trimethylsilyl)ethylthiothymidine sulfoxide]
CC50 ([1]; Homo sapiens): > 200 µM

Cc1cn([C@@H]2O[C@H](CO)C=C2S(=O)(=O)CC[Si](C)(C)C)c(=O)[nH]c1=O [Compound 7, 2′,3′-Didehydro-2′,3′-dideoxy-2′-(2-trimethylsilyl)ethylthiothymidine sulfone]
CC50 ([1]; Homo sapiens): 63 µM
CC50 [2]: 120 µM

C[Si](C)(C)CC[S+]([O-])C1=C[C@@H](CO)O[C@H]1n1ccc(=O)[nH]c1=O (stereo partly shown) [Compound 8, 2′,3′-Didehydro-2′,3′-dideoxy-2′-(2-trimethylsilyl)ethylthiouridine sulfoxide]
CC50 ([1]; Homo sapiens): > 200 µM

Cc1cn([C@@H]2O[C@H](CO)C=C2SSc2ccccc2[N+](=O)[O-])c(=O)[nH]c1=O [Compound 11]
EC50 ([1]; Homo sapiens): > 200 µM

Cc1cn([C@@H]2O[C@H](CO)C=C2SSC(Cl)(Cl)Cl)c(=O)[nH]c1=O [Compound 12, 2′,3′-didehydro-2′,3′-dideoxythymidin-2′-yl trichloromethyl disulfide]
EC50 ([1]; Homo sapiens): 46 µM

Cc1cn(C2OC(CO)C=C2SSc2ccc([N+](=O)[O-])cc2)c(=O)[nH]c1=O (stereo not shown) [Compound 14, 2′,3′-didehydro-2′,3′-dideoxythymidin-2′-yl 4-nitrophenyl disulfide]
cytotoxic effect, L1210/0 [3]: 31 ± 3
cytotoxic effect, FM3A/0 [4]: 39 ± 3
cytotoxic effect, Molt4/C8 [5]: 12 ± 5
cytotoxic effect, CEM [6]: 31 ± 1
cytotoxic effect, HeLa [7]: 7.4 ± 1.6
MIC (minimum inhibitory concentration) [8]: 100
EC50 [8, 12]: 15 µM

Cc1cn(C2OC(CO)C=C2SSc2ccccc2[N+](=O)[O-])c(=O)[nH]c1=O (stereo not shown) [Compound 15, 2′,3′-didehydro-2′,3′-dideoxythymidin-2′-yl 2-nitrophenyl disulfide]
cytotoxic effect, L1210/0 [3]: 42 ± 3
cytotoxic effect, FM3A/0 [4]: 175 ± 30
cytotoxic effect, Molt4/C8 [5]: 30 ± 15
cytotoxic effect, CEM [6]: 28 ± 0
cytotoxic effect, HeLa [7]: 31 ± 1
MIC (minimum inhibitory concentration) [8]: 100
EC50 [8, 12]: 8.3 ± 0.4 µM

O=c1ccn([C@@H]2O[C@H](CO)C=C2SSc2ccc([N+](=O)[O-])cc2)c(=O)[nH]1 [Compound 16, 2′,3′-didehydro-2′,3′-dideoxyuridin-2′-yl 4-nitrophenyl disulfide]
cytotoxic effect, L1210/0 [3]: 42 ± 4
cytotoxic effect, FM3A/0 [4]: 45 ± 2
cytotoxic effect, Molt4/C8 [5]: 28 ± 10
cytotoxic effect, CEM [6]: 41 ± 1
cytotoxic effect, HeLa [7]: 16 ± 2
EC50 [9, 13]: 37.5 ± 17.7 µM
EC50 [10, 14]: 9.5 ± 7.8 µM
EC50 [11]: 32.5 ± 25 µM

O=c1ccn([C@@H]2O[C@H](CO)C=C2SSc2ccccc2[N+](=O)[O-])c(=O)[nH]1 [Compound 17, 2′,3′-didehydro-2′,3′-dideoxyuridin-2′-yl 2-nitrophenyl disulfide]
cytotoxic effect, L1210/0 [3]: 43 ± 5
cytotoxic effect, FM3A/0 [4]: 206 ± 25
cytotoxic effect, Molt4/C8 [5]: 42 ± 1
cytotoxic effect, CEM [6]: 40 ± 4
cytotoxic effect, HeLa [7]: 29 ± 9
EC50 [9, 13]: 6.5 ± 4.9 µM
EC50 [10, 14]: ≥ 10 µM
EC50 [11]: > 10 µM

CSS[C@H]1C[C@H](n2ccc(N)nc2=O)O[C@@H]1CO [Compound 19, 2′,3′-Dideoxycytidin-3′-yl methyl disulfide]
EC50 ([1]; Homo sapiens): > 200 µM
EC50 [9, 13]: 20 ± 7 µM
EC50 ([9]; Human immunodeficiency virus 1, CCRF-CEM, read-out: EC50 HIV-1, First and Second Series, first table): 3.3 ± 2.3 µM
EC50 ([10]; Human immunodeficiency virus 2, CCRF-CEM, First and Second Series, first table): 10.5 ± 9.3 µM
EC50 [10, 14]: 20 ± 7 µM
EC50 [11]: 45 ± 21 µM
EC50 ([8]; C3H/3T3, read-out: EC50 (effective concentration 50%)): 48 ± 2 µM
MIC (minimum inhibitory concentration) [8]: >100

CSS[C@H]1C[C@H](n2cc(Br)c(=O)[nH]c2=O)O[C@@H]1CO [Compound 23, 5-Bromo-2′,3′-dideoxyuridin-3′-yl methyl disulfide]
EC50 ([1]; Homo sapiens): 66 µM

Cc1cn([C@H]2C[C@H](SSc3ccc([N+](=O)[O-])cc3)[C@@H](CO)O2)c(=O)[nH]c1=O [Compound 25, 3′-deoxythymidin-3′-yl 4-nitrophenyl disulfide]
cytotoxic effect, L1210/0 [3]: 32 ± 3
cytotoxic effect, FM3A/0 [4]: 148 ± 16
cytotoxic effect, Molt4/C8 [5]: 29 ± 2
cytotoxic effect, CEM [6]: 34 ± 0
cytotoxic effect, HeLa [7]: 28 ± 12
MIC (minimum inhibitory concentration) [8]: 20
EC50 [8, 12]: 0.89 ± 0.36 µM

Cc1cn([C@H]2C[C@H](SSc3ccccc3[N+](=O)[O-])[C@@H](CO)O2)c(=O)[nH]c1=O [Compound 26, 3′-deoxythymidin-3′-yl 2-nitrophenyl disulfide]
cytotoxic effect, L1210/0 [3]: 33 ± 7
cytotoxic effect, FM3A/0 [4]: 220 ± 19
cytotoxic effect, Molt4/C8 [5]: 31 ± 5
cytotoxic effect, CEM [6]: 32 ± 1
cytotoxic effect, HeLa [7]: 15 ± 0
MIC (minimum inhibitory concentration) [8]: 20
EC50 [8, 12]: 1.1 ± 0.8 µM

Cc1cn([C@H]2C[C@H](SSCCCCCCO)[C@@H](CO)O2)c(=O)[nH]c1=O [Compound 30, 3′-deoxythymidin-3′-yl 6-hydroxyhexyl disulfide]
EC50 [9, 13]: 3 µM
EC50 [10, 14]: 4.5 ± 2.1 µM
EC50 [11]: > 10 µM

CSC1=C[C@@H](CO)O[C@H]1n1ccc(=O)[nH]c1=O [Compound 31, 2′,3′-didehydro-2′,3′-dideoxy-2′-methylthiouridine]
EC50 [9, 13]: ≥ 10 µM
EC50 [10, 14]: 6.5 ± 0.7 µM
EC50 [11]: > 10 µM

Nc1ncnc2c1ncn2CCOCP(=O)(O)O [PMEA, reference compound]
EC50 [8, 12]: 0.53 ± 0.13 µM

C[C@H](Cn1cnc2c(N)ncnc21)OCP(=O)(O)O [Tenofovir, reference compound]
EC50 ([9]; First and Second Series, first table, read-out: EC50 HIV-1): 5.5 µM
EC50 ([10]; First and Second Series, first table): 2.6 µM

(R)-PMEA [reference compound]
MIC (minimum inhibitory concentration) [8]: >10
EC50 [8, 12]: 0.23 ± 0.03 µM

— patent US20100075917A1, “THIONUCLEOSIDES AND PHARMACEUTICAL APPLICATIONS” (priority 2006, published 2010)
